Experimental data from patent US8952054B2, “Small molecule inhibitors of MUC1 and methods of identifying the same” (Dana-Farber Cancer Institute, Inc., priority 2010, dated 2015).

Columns and labels:
MCF-7 cells [1] = assay: MCF-7 cell number (MTS), caspase-9 cleavage, PI uptake and colony formation; type: cell-based, human; conditions: for colony formation: 2 weeks
Method: FIGS. 14A-E—Apigenin suppresses MUC1 expression in MCF-7 cells. (FIG. 14A) MCF-7 cells were treated with DMSO vehicle, 75 μM apigenin or 75 μM baicalein for 3 d. Total RNA was assayed for MUC1 mRNA levels by qRTPCR. The results (mean+SD of 3 determinations) are expressed as relative MUC1 mRNA levels as compared to that obtained in cells treated with DMSO. (FIGS. 14B-C) MCF-7 cells were treated with the indicated concentrations of apigenin and baicalein for 3 days. Nuclear (FIG. 14B) and whole cell lysates (FIG. 14C) were immunoblotted with the indicated antibodies. D. Lysates from MCF-7 cells were infected to stably express a control lentivirus and one with a MUC1 shRNA were immunoblotted with the indicated antibodies. (FIG. 14E) The indicated MCF-7 cells were treated with […] apigenin for 3 d. Viable cell number was determined by the MTS assay. The results (mean+SD of 3 determinations) are expressed as percentage of control growth in the presence of DMSO.
FIGS. 15A-C—Apigenin inhibits MCF-7 clonogenic survival. (FIG. 15A) MCF-7 cells were treated with DMSO, 75 μM apigenin or 75 μM baicalein for 3 d. Lysates were immunoblotted with the indicated antibodies. (FIG. 15B) MCF-7 cells were treated with DMSO, 75 μM apigenin or 75 μM baicalein for 3 d, stained with propidium iodide and analyzed by flow cytometry. […] (FIG. 15C) MCF-7 cells were plated at a density of 1000 cells/6 cm dish. At 24 h after seeding, DMSO or apigenin at concentrations of 25, 50 and 75 μM was added to the medium. After 2 weeks, colonies were stained with crystal violet. The results (mean+SD of 3 determinations) are expressed as percentage of control colony formation in the presence of DMSO.

MUC1-C = target: T1, MUC1-C (Homo sapiens, UniProt P15941); assay: Immunoblot of MUC1-C expression in BT474 cells; type: cell-based; parameters: endogenous in cells; conditions: BT474, 3 d then additional 3 d
T1 sequence (P15941 1098-1255 limits assumed): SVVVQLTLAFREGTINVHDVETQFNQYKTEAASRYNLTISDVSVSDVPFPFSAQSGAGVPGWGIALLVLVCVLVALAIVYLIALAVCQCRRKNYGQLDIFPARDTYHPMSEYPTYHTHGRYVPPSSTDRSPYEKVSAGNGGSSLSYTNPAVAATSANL
Method: FIGS. 16A-D—Effects of apigenin on breast cancer cells without and with endogenous MUC1 expression. (FIG. 16A) Lysates from human MCF-7, HCC1937 and BT474 cells were immunoblotted with the indicated antibodies. (FIG. 16B) BT474 cells were treated with indicated concentrations of apigenin and baicalein for 3 d, washed and then treated for an additional 3 d. Lysates were immunoblotted with the indicated antibodies. (FIG. 16C) BT474 (triangles) and HCC1937 (squares) cells were treated with apigenin for 3 d. Viable cell numbers were determined by MTS assay. The results (mean+SD of 3 determinations) are expressed as percentage of control growth in the presence of DMSO. (FIG. 16D) BT474 cells were plated at a density of 5000 cells/6 cm dish. At 24 h after seeding, DMSO or apigenin at concentrations of 25, 50 and 75 μM was added to the medium. After 2 weeks, colonies were stained with crystal violet. The results (mean+SD of 3 determinations) are expressed as percentage of control colony formation in the presence of DMSO.

MCF-7 cells [2] = assay: Cell cycle distribution and necrosis by flow cytometry, MCF-7; type: cell-based, human; conditions: MCF-7, 5 μM, 3 and 4 d
Method: FIGS. 3A-D. MUC1/CQC peptide induces S phase arrest and necrosis. ZR-75-1 (FIGS. 2A-B) and MCF-7 (FIGS. 2C-D) cells were treated with 5 μM MUC1/CQC or MUC1/AQA for 3 and 4 d. Cells were fixed and analyzed for cell cycle distribution by flow cytometry (FIGS. 2A and 2C). The percentage of cells in G1, S and G2/M phases is included in the panels. Cells were also stained with propidium iodide and analyzed by flow cytometry for necrosis (FIGS. 2B and 2D). The percentage of necrotic cells is included in the panels.
Cells were harvested, washed with PBS, fixed with 80% ethanol, and incubated in PBS containing 40 μg/ml RNAse and 40 μg/ml propidium iodide for 30 min at 37° C. Cell cycle distribution was determined by flow cytometry. Sub-G1 DNA content was assessed by staining ethanol-fixed and citrate buffer-permeabilized cells with propidium iodide and monitoring by flow cytometry as described (Yin et al., 2007). For assessment of necrosis, cells were incubated with 1 μg/ml propidium iodide/PBS for 5 min at room temperature and then monitored by flow cytometry as described (Yin et al., 2007).

ZR-75-1/MUC1siRNA cells = assay: Viable cell number by trypan blue exclusion, ZR-75-1/MUC1siRNA; type: cell-based, human; conditions: 5 μM, versus ZR-75-1/vector
Method: (§1) FIGS. 4A-E. Selectivity of MUC1/CQC for MUC1 expressing breast cancer cells. (FIG. 4A) ZR-75-1 cells were stably infected with an empty lentivirus (vector) or one expressing a MUC1 siRNA. Lysates for the infected cells were immunoblotted with the indicated antibodies. (FIG. 4B) ZR-75-1/vector cells were left untreated (diamonds), and ZR-75-1/vector (squares) and ZR-75-1/MUC1 siRNA (triangles) cells were treated with 5 μM MUC1/CQC peptide for the indicated times. Viable cell number was determined by trypan blue exclusion. (FIG. 4C) 293 cells were left untreated (diamonds), and treated with 5 μM MUC1/CQC (squares) or MUC1/AQA (triangles) for the indicated times. Viable cell number was determined by trypan blue exclusion. (FIG. 4D) MCF-10A cells were left untreated (left panel), and treated with 5 μM MUC1/CQC (middle panel) or MUC1/AQA (right panel). At 3 d, cells were analyzed for cell cycle distribution. […] Viable cell number was determined by trypan blue exclusion.
(§2) Human breast cancer ZR-75-1, ZR-75-1/vector, ZR-75-1/MUC1siRNA (Ren et al., 2004) cell lines were grown in RPMI1640 medium supplemented with 10% heat-inactivated fetal bovine serum (HI-FBS), 100 U/ml penicillin, and 100 μg/ml streptomycin (Invitrogen) in a humidified incubator at 37° C. and 5% CO2. […] Viability was determined by trypan blue exclusion.

MCF-10A cells = assay: Cell cycle distribution and growth of MCF-10A cells (peptide); type: cell-based, human; conditions: 5 μM
Method: as §1
as §2, with “exclusion. […]” for “exclusion.”

MUC1-C expression (MUC1-C)	SMILES	colony formation (MCF-7 cells [1]; MCF-7, 25 μM)	caspase-9 cleavage (MCF-7 cells [1]; MCF-7, 75 μM, 3 d)	cell membrane integrity (PI) (MCF-7 cells [1]; MCF-7, 75 μM, 3 d)	effect of silencing MUC1 (shRNA) on apigenin-induced decreases in cell number (MCF-7 cells [1]; MCF-7, 75 µM, 3 d, MTS)	colony formation (MCF-7 cells [1]; MCF-7, higher concentrations (50 and 75 μM))	cell cycle distribution (MCF-7 cells [2])	necrosis (propidium iodide) (MCF-7 cells [2])	growth / viable cell number (ZR-75-1/MUC1siRNA cells)	growth / viable cell number (MCF-10A cells)	cell cycle distribution (MCF-10A cells; 3 d)
downregulation of MUC1-C expression	O=c1cc(-c2ccc(O)cc2)oc2cc(O)cc(O)c12 [Apigenin, 4′,5,7-trihydroxyflavone]	substantial decrease in colonies	cleavage of caspase-9	loss of cell membrane integrity	partially decreased sensitivity	complete loss of survival	–	–	–	–	–
–	CC[C@H](C)[C@H](NC(=O)[C@H](CC(=O)O)NC(=O)[C@H](CC(C)C)NC(=O)[C@H](CCC(N)=O)NC(=O)CNC(=O)[C@H](Cc1ccc(O)cc1)NC(=O)[C@H](CC(N)=O)NC(=O)[C@H](CCCCN)NC(=O)[C@H](CCCNC(=N)N)NC(=O)[C@H](CCCNC(=N)N)NC(=O)[C@H](CS)NC(=O)[C@H](CCC(N)=O)NC(=O)[C@H](CS)NC(=O)[C@@H](CCCNC(=N)N)NC(=O)[C@@H](CCCNC(=N)N)NC(=O)[C@@H](CCCNC(=N)N)NC(=O)[C@@H](CCCNC(=N)N)NC(=O)[C@@H](CCCNC(=N)N)NC(=O)[C@@H](CCCNC(=N)N)NC(=O)[C@@H](CCCNC(=N)N)NC(=O)[C@@H](CCCNC(=N)N)NC(=O)[C@H](N)CCCNC(=N)N)C(=O)N[C@@H](Cc1ccccc1)C(=O)N1CCC[C@H]1C(=O)O [MUC1/CQC]	–	–	–	–	–	arrest of growth in S phase	induction of necrosis	substantially less effect	no effect	no effect
